Columns and labels:
[1] = Plasma concentrations of uridine, PB and metabolites after oral administration (comparative bioavailability)
Method: The delivery of phenylacetate into the bloodstream after oral administration of PAU was also assessed. Sodium phenylbutyrate is used in clinical practice as an ammonia scavenger in hepatic encephalopathy or genetic nitrogen cycle disorders, or as a chaperone or histone deacetylase inhibitor. It is predominantly metabolized to phenylacetate via beta-oxidation in the liver, and phenylacetate mediates the therapeutic benefits of phenylbutyrate. PAU was administered orally at a dose equimolar to 200 mg/kg sodium phenylbutyrate. Female BALB/c mice (n=3-5 group) were given test compounds p.o. and after 30 minutes were retro-orbitally bled to obtain plasma. […] An equimolar dose or uridine was used as a comparator for efficiency of delivery of uridine into the circulation by oral administration of PAU.

[2] = system: TNFα; assay: LPS-induced elevation of plasma TNFα (inflammation model); assay type: in vivo; details: female BALB/c mice; for TNF α ± SEM: plasma one hour after LPS
Method: Injection of bacterial cell wall constituent lipopolysaccharide (LPS) has been used as a model of inflammation. The inflammatory cascade can lead to cellular and organ damage when unchecked.
Female BALB/c mice […] of age (n=7-8/group) were treated with Vehicle (0.75% HPMC) or PAU p.o. and 30 minutes later LPS (2.5 mg/kg i.p.) was administered. One hour after LPS, mice were sacrificed and blood was collected for measurement of plasma TNFα.

[3] = female BALB/c mice, p.o., dose equimolar to 200 mg/kg sodium phenylbutyrate, plasma 30 minutes after dosing

Row | Compound | Elevation of plasma uridine and uracil compared with equimolar dose of oral uridine ([1]; oral, mice) | TNF α ± SEM ([2]; PAU 165 mg/kg p.o. 30 minutes before LPS 2.5 mg/kg i.p., Vehicle 15,981 ± 2,951) | TNF α ± SEM ([2]; PAU 331 mg/kg p.o. 30 minutes before LPS 2.5 mg/kg i.p., p < .05 compared to Vehicle (15,981 ± 2,951)) | Anti-inflammatory effect in the LPS-induced elevation of plasma TNFα ([2]; p.o.) | Plasma concentration of PA (phenylacetate) [1, 3] [µM] | Plasma concentration of PB (phenylbutyrate) [1, 3] [µM]
1 | O=C(Cc1ccccc1)OC[C@H]1O[C@@H](n2ccc(=O)[nH]c2=O)[C@H](O)[C@@H]1O [PAU, 5′-O-Phenylacetyluridine] | elevated plasma uridine and uracil better | 10,068 ± 2,583 pg/ml | 7,034 ± 1,236 + pg/ml | significant anti-inflammatory effect |  | 
2 | sodium phenylbutyrate [NaPB] |  |  |  |  | 401 | 26

— patent publication US12630580B2, “5′-O-phenylacetyluridine and therapeutic use” (PHARMA CINQ, LLC, priority 2020, dated 2026)
